Columns and labels:
[1] = biological target: T1, mGAT4 (Mus musculus, UniProt P31650); experiment: [^3H]GABA uptake assay, HEK293 cells expressing mGAT4; format: cell-based; details: for remaining activity at 100 µM: HEK293, in presence of 100 μM compound; for IC50: [^3H]GABA uptake, pIC50±SEM
T1 construct: expressed in transfected cells; host or cells: HEK293
T1 sequence (P31650 1-627): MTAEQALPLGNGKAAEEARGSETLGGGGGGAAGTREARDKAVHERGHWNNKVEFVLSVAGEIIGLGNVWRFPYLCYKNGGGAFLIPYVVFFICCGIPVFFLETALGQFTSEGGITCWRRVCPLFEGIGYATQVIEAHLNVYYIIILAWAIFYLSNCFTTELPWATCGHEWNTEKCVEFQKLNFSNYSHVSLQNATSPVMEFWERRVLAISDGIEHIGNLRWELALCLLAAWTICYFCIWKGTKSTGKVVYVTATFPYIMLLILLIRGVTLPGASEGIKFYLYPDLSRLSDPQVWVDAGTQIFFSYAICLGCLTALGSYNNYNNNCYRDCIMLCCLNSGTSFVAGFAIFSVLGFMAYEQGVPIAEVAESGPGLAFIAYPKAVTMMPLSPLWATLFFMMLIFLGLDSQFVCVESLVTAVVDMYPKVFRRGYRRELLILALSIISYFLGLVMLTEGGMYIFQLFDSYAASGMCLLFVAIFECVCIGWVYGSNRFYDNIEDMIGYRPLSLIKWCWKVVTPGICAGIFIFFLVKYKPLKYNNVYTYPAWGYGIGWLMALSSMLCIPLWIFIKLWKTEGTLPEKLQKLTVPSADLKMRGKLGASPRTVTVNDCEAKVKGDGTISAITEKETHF
Experimental: (§1) For compounds with pIC50 ([^3H]GABA uptake assay) or pK i (MS Binding Assays) values close to or above 5.0, these experiments were repeated twice and SEM have been calculated.
(§2) [^3H]GABA uptake assays: The [^3H]GABA uptake assays were performed according to Kragler et al.33 Cells were grown in 150 cm^2 plates to a confluence of 70–90 % up to passage 25. After detachment the cells were centrifuged 5 min at 500×g, washed for three times in phosphate buffered saline and, finally, resuspended in Krebs buffer (2.5 mM CaCl2, 1.2 mM MgSO4, 1.2 mM KH2PO4, 4.7 mM KCl, 11 mM glucose, 25 mM Tris, 119 mM NaCl, pH 7.2). The uptake assays were performed with aliquots of the resulting cell suspension (about 100000–200000 cells per well) in a total volume of 250 μl in 96 well 2.2 mL deep well plates. The cells were equilibrated for 25 min in Krebs buffer in the presence of the test compound at 37 °C in a gently shaking water bath. […] After addition of 25 μl of a solution containing [^3H]GABA (2.22 TBq/mmol, ARC, St Louis, MO, USA) and unlabeled GABA in Krebs (final concentration 8 nM [^3H]GABA and 32 nM unlabeled GABA for mGAT1, mGAT3, mGAT4 and 20 nM [^3H]GABA and 20 nM unlabeled GABA for mGAT2) the cells were incubated for further 4 min (mGAT1, mGAT3, mGAT4) or 10 minutes (mGAT2), respectively. The incubation was stopped by filtration through Sartorius MGC micro glass fiber filters pre‐soaked for 1 h in 0.9 % NaCl by means of a Brandell MWXR‐96TI cell harvester (Brandell, Gaithersburg, MD, USA) under reduced pressure. The filters were rinsed two times with cold 0.9 % NaCl and subsequently transferred to 96 well sample plates (Perkin Elmer LAS, Boston, MA, USA). After addition of 200 μl Rotiszint Eco Plus (Roth, Karlsruhe, Germany) per well the radioactivity was determined in a microbeta liquid scintillation counter (Perkin Elmer LAS, Boston, MA, USA). Non‐specific uptake was determined in presence of 10 mM GABA for mGAT1, mGAT3 and mGAT4 or 100 mM GABA for mGAT2, respectively. The results are expressed as means±S.E.M. of at least three separate experiments, each carried out in triplicate.

[2] = biological target: T2, mGAT3 (Mus musculus, UniProt P31649); experiment: [^3H]GABA uptake assay, HEK293 cells expressing mGAT3; format: cell-based; details: for remaining activity at 100 µM: HEK293, in presence of 100 μM compound; for IC50: [^3H]GABA uptake, pIC50±SEM
T2 construct: expressed in transfected cells; host or cells: HEK293
T2 sequence (P31649 1-602): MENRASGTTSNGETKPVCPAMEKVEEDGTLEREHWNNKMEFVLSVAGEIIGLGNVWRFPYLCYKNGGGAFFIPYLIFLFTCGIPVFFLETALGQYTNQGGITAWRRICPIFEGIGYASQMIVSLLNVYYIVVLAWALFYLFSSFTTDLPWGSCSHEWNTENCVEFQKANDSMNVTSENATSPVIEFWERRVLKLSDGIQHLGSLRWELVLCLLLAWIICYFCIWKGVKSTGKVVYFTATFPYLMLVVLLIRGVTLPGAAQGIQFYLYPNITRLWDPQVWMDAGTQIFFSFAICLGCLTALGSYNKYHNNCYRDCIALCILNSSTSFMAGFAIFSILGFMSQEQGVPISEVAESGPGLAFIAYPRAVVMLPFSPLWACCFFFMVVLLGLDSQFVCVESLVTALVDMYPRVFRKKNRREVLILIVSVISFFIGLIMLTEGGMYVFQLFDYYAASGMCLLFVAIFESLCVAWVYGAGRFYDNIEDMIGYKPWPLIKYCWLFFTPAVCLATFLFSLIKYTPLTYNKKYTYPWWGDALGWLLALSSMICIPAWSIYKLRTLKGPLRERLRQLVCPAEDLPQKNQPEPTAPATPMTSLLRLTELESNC
Experimental: as §1, §2

[3] = biological target: T3, mGAT2 (Mus musculus, UniProt P31651); experiment: [^3H]GABA uptake assay, HEK293 cells expressing mGAT2; format: cell-based; details: for remaining activity at 100 µM: HEK293, in presence of 100 μM compound
T3 construct: expressed in transfected cells; host or cells: HEK293
T3 sequence (P31651 1-614): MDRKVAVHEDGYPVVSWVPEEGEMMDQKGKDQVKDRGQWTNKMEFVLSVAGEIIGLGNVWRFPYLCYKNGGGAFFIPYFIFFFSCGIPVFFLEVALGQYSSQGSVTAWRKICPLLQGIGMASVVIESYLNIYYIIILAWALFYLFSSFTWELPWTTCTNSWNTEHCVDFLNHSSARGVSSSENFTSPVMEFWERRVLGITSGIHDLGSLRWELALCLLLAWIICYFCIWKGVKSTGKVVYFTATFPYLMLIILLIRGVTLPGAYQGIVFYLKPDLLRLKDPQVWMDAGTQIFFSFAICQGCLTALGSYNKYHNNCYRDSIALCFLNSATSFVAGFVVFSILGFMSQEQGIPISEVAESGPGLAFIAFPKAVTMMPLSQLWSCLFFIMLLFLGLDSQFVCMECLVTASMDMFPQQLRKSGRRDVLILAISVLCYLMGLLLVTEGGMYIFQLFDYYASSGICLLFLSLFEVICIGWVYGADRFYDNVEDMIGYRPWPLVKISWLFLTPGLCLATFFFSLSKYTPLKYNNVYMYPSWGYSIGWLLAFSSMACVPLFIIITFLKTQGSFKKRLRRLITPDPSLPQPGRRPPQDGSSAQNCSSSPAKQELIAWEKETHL
Experimental: as §1, §2

[4] = biological target: T4, mGAT1 (Mus musculus, UniProt P31648); experiment: MS Binding Assay with NO711 as native MS marker; details: for remaining activity at 100 µM: in presence of 100 μM compound, read-out: remaining specific NO711 binding (mGAT1)
T4 construct: expressed in transfected cells; host or cells: HEK293
Experimental: as §1
MS Binding Assays: The MS Binding Assays were performed with mGAT1 membrane preparations obtained from a stably mGAT1 expressing HEK293 cell line and NO711 as unlabeled marker in competitive binding experiments as previously described in detail.34 In short, test compounds were investigated at 7 concentrations in presence of 10 nM NO 711 in competition experiments. Non specific binding was defined as binding remaining in the presence of 100 mM GABA. Incubation was terminated by transfer of 200 μL per well onto a 96‐well filter plate (Acroprep, glass fibre, 1.0 μm, 350 μL, Pall, Dreieich, Germany) with a 12 channel pipette. After rapid vacuum‐filtration the filters were washed with ice cold 0.9 % NaCl (5×150 μL) and dried at 50 °C for 60 min. Afterwards, the filters were eluted with 100 μL methanol containing [^2H10]NO711 (1.4 nM) as internal standard per well into a deep‐well plate by application of vacuum. This step was repeated twice resulting in a total elution volume of 300 μL. Finally, a volume of 130 μL ammonium formate buffer (10 mM, pH 7.0) was added per well and the generated samples analyzed by LC‐ESI‐MS/MS using a API 3200 as described in detail previously.40

[5] = biological target: T4, mGAT1; experiment: [^3H]GABA uptake assay, HEK293 cells expressing mGAT1; format: cell-based; details: for remaining activity at 100 µM: HEK293, in presence of 100 μM compound
Experimental: as §1, §2

| Compound | remaining activity at 100 µM [1] [%] | remaining activity at 100 µM [2] [%] | remaining activity at 100 µM [3] [%] | remaining activity at 100 µM [4] [%] | remaining activity at 100 µM [5] [%] | IC50 [1] [µM] | IC50 [2] [µM] | Ki ([4]; MS Binding Assay, NO711 marker, pKi±SEM, read-out: pK i mGAT1 (converted)) [µM] | IC50 ([3]; [^3H]GABA uptake, pIC50±SEM) [µM] | IC50 ([5]; [^3H]GABA uptake, pIC50±SEM) [µM] |
| --- | --- | --- | --- | --- | --- | --- | --- | --- | --- | --- |
| COc1ccc(C(OCCN2CCCC(C(=O)O)C2)(c2ccc(OC)cc2)c2ccc(C(C)=O)cc2)cc1 (racemic) [5 b, rac ‐1‐{2‐[(4‐Acetylphenyl)bis(4‐methoxyphenyl)methoxy]ethyl}piperidine‐3‐carboxylic acid] |  |  | 64.2 |  | 64.6 | 3.72 | 57.5 | 30.9 |  |  |
| COc1ccc(C(OCCN2CCCC(C(=O)O)C2)(c2ccc(OC)cc2)c2ccc(C(N)=O)cc2)cc1 (racemic) [5 j, rac ‐1‐{2‐[(4‐Carbamoylphenyl)bis(4‐methoxyphenyl)methoxy]ethyl}‐piperidine‐3‐carboxylic acid] | 65.2 | 82.1 | 96.1 | 87 | 79.6 | > 100 |  |  |  |  |
| COc1ccc(C(OCCN2CCCC(C(=O)O)C2)(C(=O)O)c2ccc(OC)cc2)cc1 (racemic) [5 k, rac ‐1‐{2‐[Carboxybis(4‐methoxyphenyl)methoxy]ethyl}piperidine‐3‐carboxylic acid] | 96.5 | 94 | 101 | 96.9 | 100 |  |  |  |  |  |
| COc1ccc(C(OCCN2CCCC(C(=O)O)C2)(c2ccc(CN3CCCC3=O)cc2)c2ccc(OC)cc2)cc1 (racemic) [5 r, rac‐ 1‐[2‐(Bis{4‐methoxyphenyl}{4‐[(2‐oxopyrrolidin‐1‐yl)methyl]phenyl}‐methoxy)ethyl]piperidine‐3‐carboxylic acid] |  | 64.2 | 79.7 | 97 | 76 | 64.6 |  |  |  |  |
| COc1ccc(C(OCCN2CCCC(C(=O)O)C2)(c2ccc(OC)cc2)c2ccc(C(=O)O)cc2)cc1 (racemic) [5 e, rac ‐1‐{2‐[(4‐Carboxyphenyl)bis(4‐methoxyphenyl)methoxy]ethyl}piper‐idine‐3‐carboxylic acid] |  |  | 85.2 | 71.4 | 96.5 | 13.8 | 57.5 |  |  |  |

Next, values leading:

| remaining activity at 100 µM [1] [%] | remaining activity at 100 µM [2] [%] | remaining activity at 100 µM [3] [%] | remaining activity at 100 µM [4] [%] | remaining activity at 100 µM [5] [%] | IC50 [1] [µM] | IC50 [2] [µM] | Ki ([4]; MS Binding Assay, NO711 marker, pKi±SEM, read-out: pK i mGAT1 (converted)) [µM] | IC50 ([3]; [^3H]GABA uptake, pIC50±SEM) [µM] | IC50 ([5]; [^3H]GABA uptake, pIC50±SEM) [µM] | Compound |
| --- | --- | --- | --- | --- | --- | --- | --- | --- | --- | --- |
| 71.9 | 63.6 | 80.7 | 97.6 | 76.6 |  |  |  |  |  | CCOC(=O)C1CCCN(CCOC(c2ccc(C#N)cc2)(c2ccc(OC)cc2)c2ccc(OC)cc2)C1 (racemic) [12 g, rac‐ Ethyl 1‐{2‐[(4‐cyanophenyl)bis(4‐methoxyphenyl)methoxy]ethyl}‐piperidine‐3‐carboxylate] |
| 76.1 | 79 | 87.3 | 74.8 | 84.6 |  |  |  |  |  | CCOC(=O)c1ccc(C(OCCN2CCCC(C(=O)OCC)C2)(c2ccc(OC)cc2)c2ccc(OC)cc2)cc1 (racemic) [12 e, rac‐ Ethyl 1‐(2‐{[4‐(ethoxycarbonyl)phenyl]bis[4‐methoxyphenyl]‐methoxy}ethyl)piperidine‐3‐carboxylate] |
|  |  |  | 72.4 |  | 21.9 | 23.4 |  | 19.1 | 25.7 | CCOC(=O)CCNCc1ccc(C(OCCN2CCCC(C(=O)OCC)C2)(c2ccc(OC)cc2)c2ccc(OC)cc2)cc1 (racemic) [12 o, rac ‐Ethyl 1‐{2‐[(4‐{[(3‐ethoxy‐3‐oxopropyl)amino]methyl}phenyl)bis(4‐methoxyphenyl)methoxy]ethyl}piperidine‐3‐carboxylate] |
| 78.2 | 64.1 | 92.6 | 90.8 | 89.1 |  |  |  |  |  | CCOC(=O)C1CCCN(CCOC(C(=O)OC)(c2ccc(OC)cc2)c2ccc(OC)cc2)C1 (racemic) [12 k, rac‐ Ethyl 1‐{2‐[2‐methoxy‐1,1‐bis(4‐methoxyphenyl)‐2‐oxoethoxy]ethyl}‐piperidine‐3‐carboxylate] |
| 51.4 |  | 65 | 87.5 | 70.3 |  | 95.5 |  |  |  | CCOC(=O)C1CCCN(CCOC(c2ccc(COC)cc2)(c2ccc(COC)cc2)c2ccc(COC)cc2)C1 (racemic) [12 i, rac‐ Ethyl 1‐(2‐{tris[4‐(methoxymethyl)phenyl]methoxy}ethyl)piperidine‐3‐carboxylate] |
